Measurements reported in patent US4584312A, “Substituted 2,3,4,9-tetrahydro-1H-carbazole-1-acetic acid, compositions and use” (American Home Products Corporation, priority 1985, dated 1986).

Columns and labels:
[1] = test system: phenylquinone-induced writhing; experiment: Phenylquinone Writhing in Mice; format: in vivo, mouse (Male Swiss albino); conditions: 25 mg/kg, p.o., phenylquinone i.p. 60 minutes after dosing, writhes counted over 15 min
Procedure: A further test used to determine the utility of the compounds of the present invention is designated: DRUG EFFECTS ON PHENYLQUINONEINDUCED WRITHING IN MICE
The objective of this test is to determine the ability of test drugs to inhibit the nociceptive (pain) response of mice injected with a chemical irritant. This test is a primary screen for both peripheral and centrally acting analgesic drugs.
Male Swiss albino mice (15-25 g). The animals are fasted for 18 hours prior to use but have free access to water.
Drugs are dissolved or suspended according to their solubility in 0.5% methyl cellulose or 0.5% Tween 80. They are administered by gastric lavage in a volume of 5 ml/kg. For primary screening all drugs are administered at the arbitary dosage of 200 mg/kg, p.o. to a group of 10 mice.
A modification of the method of Siegmund et al., Proc. Soc. Exp. Biol. Med., 95, 729-731 (1957) is used. Groups of 5 mice are dosed with the test compound or vehicle control. Sixty minutes later the animals are injected i.p. with 0.3 ml/20 g body weight of a 0.02% solution of phenylquinone (PBQ; 2-phenyl-1,4-benzoquinone) and placed in individual observation boxes. The number of writhing or abdominal squirming movements made by each mouse during the following 15 min. period is counted. The experiment is repeated with another group of 5 mice and the mean number of writhes per mouse for a group of 10 mice is calculated.
Drug treated and vehicle-treated control groups are compared and the percentage protection conferred by the drug is calculated: [formula] where c=mean number of writhes in the control group where t=mean number of writhes in the test drug group

[2] = test system: Freund's complete adjuvant hind paw edema; experiment: Preventative Adjuvant Edema; format: in vivo, rat (Male Sprague Dawley); conditions: 25 mg/kg, p.o.; rats; hind paw edema volume day 0 to day 3; dosed day 0, 1 and 2
Procedure: This test is a primary screen for anti-inflammatory drugs.
Male Sprague Dawley rats (180-200 g) are used. The animals have free access water but food is withdrawn 18 hours before testing.
Freund's complete adjuvant is prepared by suspending 5 mg killed and dried Mycobacterium butyricum (Difco) in 1 ml liquid paraffin. The test compounds are dissolved in distilled water or suspended in distilled water with a few drops of Tween 80 according to their solubility. […]
The method is essentially that described by Wax et al., J. Pharmacol. Exp. Ther., 192, 166-171 (1975). Groups of rats are injected intradermally in the left hind paw with 0.1 ml of Freund's complete adjuvant. The test compound or vehicle is administered immediately before the adjuvant, 24 hours and 48 hours after the adjuvant (day 0, 1 and 2). The injected hind paw volume is measured before the injection of adjuvant and 24 hrs. after the last drug administration (day 3) by means of a plethysmometer (Buxco Electronics Inc.). The difference between the hind paw volume on day 0 and day 3 represents the edema volume. Phenylbutazone (50 mg/kg, p.o.) is included as a positive control.
The mean edema volume (expressed as ml±SEM) IS calculated for each group and the percentage protection conferred by the drug is calculated: [formula] where c is the mean edema volume for the untreated controls and t is the mean edema volume for the drug treated group.

SMILES | % Inhibition (Phenylquinone Writhing in Mice) [1] | % Inhibition (Preventative Adjuvant Edema) [2]
CCc1cccc2c3c([nH]c12)C(CC)(CC(=O)O)CCC3C1CC1 (single isomer, unassigned) [Example 1 f Isomer A, 4-Cyclopropyl-1,8-diethyl-2,3,4,9-tetrahydro-1H-carbazole-1-acetic Acid] | 31% | 0%
CCc1cccc2c3c([nH]c12)C(CC)(CC(=O)O)CCC3C1CC1 (single isomer, unassigned) [Example 1 f Isomer B, 4-Cyclopropyl-1,8-diethyl-2,3,4,9-tetrahydro-1H-carbazole-1-acetic Acid] | 49% | 12%
CCc1cccc2c3c([nH]c12)C(CC)(CC(=O)O)CCC3C1CCCC1 (single isomer, unassigned) [Example 2 c Isomer B, 4-Cyclopentyl-1,8-diethyl-2,3,4,9-tetrahydro-1H-carbazole-1-acetic acid] | 17% | 0%
CCc1cccc2c3c([nH]c12)C(CC)(CC(=O)O)CCC3C1CCCC1 (single isomer, unassigned) [Example 2 d Isomer A, 4-cyclopentyl-1,8-diethyl-2,3,4,9-tetrahydro-1H-carbazole-1-acetic acid] | 35% | 0%
